{"source": "patent US12071414B2", "about": "“Apelin receptor agonists and methods of use thereof” (Sanford Burnham Prebys Medical Discovery Institute, priority 2015, dated 2024)", "origin": "cited, not measured here", "key": {"heart": {"test_system": "heart", "conditions": "read-out: EC50 of positive inotropic effect; in humans; cited from earlier work"}, "isolated rat heart": {"test_system": "isolated rat heart", "conditions": "read-out: EC50 of positive inotropic effect, in rats, infusion; cited from earlier work"}}, "data": [{"substance": "apelin-16", "values": [{"measurement": "EC50", "setting": "heart", "result": "0.04 to 0.125", "unit": "nM"}, {"measurement": "EC50", "setting": "isolated rat heart", "result": "~0.033", "unit": "nM"}]}]}
